Consider 2 compounds from US9232788B2, “Fumigation methods” (Honeywell International Inc., priority 2011, dated 2016).

Entries after “also recorded” stand apart in the source; their conditions may differ.

In data set [1] the test system is Abutilon theophrasti Medik. seeds. The data set can be described thus: Fumigant test on weed seeds in soil, seed germination count. The class given is in vivo. As to conditions: for Seeds Germinated Abutilon theophrastic Medik.: fourteen seeds in soil, two days treatment, counted after 10 days; for seed germination (in words): all experimental concentrations (80, 160, 440 ml). Here is the method:
(§1) In particular, in 440 mL pressure vessels, fourteen seeds of Abutilon theophrasti Medik. and fifteen seeds of Lolium multiflorum Lam. were thoroughly mixed with 50 mL (approximately 30 grams) of soil and 6 mL of water. The filled vessels were kept at room temperature for 20-24 hr to allow the seeds to imbibe water before treatment. The vessels were sealed and evacuated, and then 80 ml, 160 ml and 440 ml respectively of gaseous 1225zc was added. The vessels were thoroughly mixed and placed horizontally on the laboratory bench at ambient temperature for two days. The contents of each bottle were transferred to a plastic sterile Petri dish containing 7 mL of water. The Petri dishes were sealed with parafilm and incubated in the laboratory at ambient temperature. After 10 days, the number of germinated seeds was counted.
The same experiment was performed as described in Example 1 except that hexafluoropropene (HFP) was used as the active fumigant composition.

Data set [2] relates to Lolium multiflorum Lam. seeds. The data set is described as above. The format is in vivo. The settings on record: for Seeds Germinated Loliium multiflorum Lam.: fifteen seeds in soil, two days treatment, counted after 10 days; for seed germination (in words): all experimental concentrations (80, 160, 440 ml). Here is the method:
as §1, with “counted. […]” for “counted.”

Data set [3] in a line: Volatility of aqueous fumigant compositions with and without surfactant (weight loss). The format is physicochemical. As to conditions: with Tween 80 nonionic surfactant versus without; 20° C., vented, weight loss every 30 seconds. Here is the method: Experimentation was carried out to determine the volatility of aqueous fumigant compositions, both with and without inclusion of a surfactant. In each case, the fluorocarbon was placed in a chilled 500 ml Fischer Porter tube that was equipped with a vent to remove any gases. The vessel was cooled to 0° C. and was charged with varying amounts of water, fluorocarbon and surfactant. The temperature was equilibrated to 20° C. and the reactor was placed on a balance. The vent tube was opened and the weight loss was recorded every 30 seconds.
In analyzing the effects of adding surfactant to an aqueous solution of HFP, 10.11 grams of HFP was added to 39.71 grams of water. In a separate experiment, 9.83 grams of HFP and 4.03 grams of Tween™ 80 were added to 40.08 grams of water. FIG. 1 provides a graphical representation of the numerical data comparing the volatility of an aqueous solution of HFP, both with and without inclusion of the Tween™ 80 nonionic surfactant.
In analyzing the effects of adding surfactant to an aqueous solution of 1225zc, 10.78 grams of 1225zc were added to 39.69 grams of water. In a separate experiment, 10.70 grams of 1225zc and 4.08 grams of Tween™ 80 were added to 40.15 grams of water. […]

Setting [4] is: 80 ml gaseous fumigant in 440 mL vessel.
Setting [5] is: 160 ml gaseous fumigant in 440 mL vessel.
[6] abbreviates: 440 ml gaseous fumigant in 440 mL vessel.

In the case of `FC(F)=CC(F)(F)F` [1225zc, 1,1,3,3,3-pentafluoropropene], the “Seeds Germinated Abutilon theophrastic Medik.” value in data set [1] (setting [4]), in data set [1] (setting [5]) and in data set [1] (setting [6]) was 0 each time. The “seed germination (in words)” value in data set [1] is reported as “none”; in data set [1] (listed as 1125c) it was “completely prevented seed germination”; in data set [2], “none”; in data set [2] (listed as 1125c) it was “completely prevented seed germination”. The “Seeds Germinated Loliium multiflorum Lam.” value in data set [2] (setting [4]), in data set [2] (setting [5]) and in data set [2] (setting [6]) was 0 in each case. Moreover, the “retention of the fluorocarbon in aqueous solution” value in data set [3] is on record as “longer retention”.

Turning to `FC(F)=C(F)C(F)(F)F` [HFP, hexafluoropropene], the “Seeds Germinated Abutilon theophrastic Medik.” value in data set [1] (setting [4]), in data set [1] (setting [5]) and in data set [1] (setting [6]) was 0 in each case. The “seed germination (in words)” value in data set [1] and in data set [2] was “completely prevented seed germination; also recorded: no germination occurred” in each case. The “Seeds Germinated Loliium multiflorum Lam.” value in data set [2] (setting [4]), in data set [2] (setting [5]) and in data set [2] (setting [6]) was 0 in each case. Besides, in data set [3], the “retention of the fluorocarbon in aqueous solution” value is reported as “longer retention”.
